Holding throughout (assay type): cell-based
In series [1] the test system is renal proximal tubule epithelial cells (RPTEC). Put plainly: in vitro. The method, then: (§1) Cells were plated at 3,000 cells/well (RPTEC) or 5,000 cells/well (NHDF) in 96-well plates and incubated overnight at 37° C. The compounds were added to the wells, and the cells were incubated for 4 days. Alomar Blue was added to one set of plates and incubated for 4 hours. The plates were read when the compound was added (time zero) and at the end of the study. Fluorescence was read using 530 nm (excitation) and 590 nm (emission) according to the manufacturer's instructions.

The test system of series [2] is human lung epithelial Carcinoma cell line (A 549). In words: Cytotoxicity assay, human lung epithelial cells. On the set-up: unit not given here. The settings on record: A 549, 96 hours, CellTiter-Glo. For orientation: Cellular ATP, detected with luciferase, serves as a proxy for viable cell number.
The next series has as its system erythrocytes. In words: Erythrocyte lysis assay. The settings on record: overnight 37° C., hematocrit 1%. The method, then:
After incubation, the plates were centrifuged and the supernatant transferred to flat-bottomed 96-well plates. The supernatant was assayed using the QuantiChrom Hemoglobin kit according to the manufacturer's instructions. The IC50 values were calculated using GraphPad Prism.

In the next series the test system is Escherichia coli. In words: Minimum inhibitory concentration assay. The settings on record: Mueller-Hinton broth, 18-24 hours at 35° C.; unit assumed. The method, then:
(§2) The minimum inhibitory concentration (MIC) assay determines the lowest concentration of an antimicrobial agent required to inhibit the growth of test organisms after incubation. MIC assays were performed against an internal standard panel of organisms to identify compounds with antimicrobial activity. The MIC assay was subsequently repeated against other specialized microbial panels. Assays were conducted against the following clinically relevant microorganisms: Staphylococcus aureus subsp. aureus, Staphylococcus epidermis, Escherichia coli, Pseudomonas aeruginosa, Haemophilius influenzae. The compounds were tested for bacteriocidal activity, time course of killing, toxicity against tissue culture cells grown in vitro, and in some cases were tested for antimicrobial activity in vivo. The MIC assays were performed according to the Performance Standards for Antimicrobial Susceptibility Testing, 2006, vol. M100-S15, Fifteenth Informational Supplement, NCCLS, 940 West Valley Road, Suite 1400, Wayne, Pa. 19087. […] The solution was then filter-sterilized through a 0.22 μm filter. Two-fold serial dilutions of polymer were prepared in Mueller-Hinton broth with cations aliquotted into 96-well microtiter plates. The plates were then inoculated with 5×10^5 cells/mL of target organism and incubated 18-24 hours at 35° C. […] The MIC value is the lowest concentration of compound that inhibits growth; accordingly, a higher MIC value indicates less potency where a lower MIC valued indicated more potency.

In the next series the test system is Haemophilus influenzae. In words: Minimum inhibitory concentration assay. As to conditions: Mueller-Hinton broth, 18-24 hours at 35° C.; unit assumed. The method, then: as §2
Another series concerns Pseudomonas aeruginosa. Put plainly: Minimum inhibitory concentration assay. The settings on record: Mueller-Hinton broth, 18-24 hours at 35° C.; unit assumed. The method, then: as §2
For series [3], the system named is Staphylococcus aureus subsp. aureus. In words: Minimum inhibitory concentration assay. The settings on record: Mueller-Hinton broth, 18-24 hours at 35° C.; unit assumed. The method, then:
as §2

The subject of the next series is Staphylococcus epidermis. In words: Minimum inhibitory concentration assay. As to conditions: Mueller-Hinton broth, 18-24 hours at 35° C.; unit assumed. The method, then: as §2
A further series in a line: in vitro. The settings on record: human. The method, then: as §1
Series [4] deals with normal human dermal fibroblasts (NHDF). The method, then:
as §1, with “Mammalian cell cytotoxicity assays were performed using two primary human cell lines: renal proximal tubule epithelial cells (RPTEC—Cambrex CC-2553) and normal human dermal fibroblasts (NHDF—Cambrex CC-2509). Cells” for “Cells”

In series [1], “4,4′-trimethylene dipiperidinebispropanoic acid-diaminopropane heptamer” displayed a Cytotoxicity (Kidney Epithelial IC50) of 190 µg/mL. Moreover, the “Lung Epi IC50” value in [2] stood at 418.0. For the same compound, the “Erythrocyte Lysis (Hemolysis IC50)” value with erythrocytes is recorded as above 3200. The same compound registered an Escherichia coli (MIC) in the series on Escherichia coli of 8 µg/mL. The compound also showed a Haemophilus influenzae (MIC) in the series with Haemophilus influenzae of 128 µg/mL. The Pseudomonas aeruginosa (MIC) in the series on Pseudomonas aeruginosa is above 128 µg/mL. In [3], the Staphylococcus aureus subsp. aureus (MIC) was found to be 2 µg/mL. In the series with Staphylococcus epidermis, this compound registered a Staphylococcus epidermis (MIC) of 1 µg/mL. Consider “4,4′-trimethylene dipiperidinebispropanoic acid-diaminopropane pentamer”, for which the “Lung Epi IC50” value in [2] came to 259.0. Moreover, the “Erythrocyte Lysis (Hemolysis IC50)” value with erythrocytes is reported as above 3200. The compound further came in with an Escherichia coli (MIC) in the series with Escherichia coli of 16 µg/mL. In the series with Haemophilus influenzae, the Haemophilus influenzae (MIC) was determined as 64 µg/mL. The same compound returned a Pseudomonas aeruginosa (MIC) in the series with Pseudomonas aeruginosa above 128 µg/mL. The compound also came in with a Staphylococcus aureus subsp. aureus (MIC) in [3] of 16 µg/mL. The compound also returned a Staphylococcus epidermis (MIC) with Staphylococcus epidermis of 1 µg/mL. On to “4-guanidinobenzene terminated Poly(4,4-trimethylene dipiperidinebispropanoic acid-diaminopropane)”, for which the Cytotoxicity (Kidney Epithelial IC50) in series [1] was found to be 6 µg/mL. In general, CC50 refers to the concentration that lowers cell viability or growth by half. For orientation: IC50 means the concentration needed to halve the response being measured. In the series “in vitro”, `NCCCNC(=O)CCN1CCC(CCCC2CCN(CCC(=O)NCCCN)CC2)CC1` [4,4-trimethylene dipiperidinebispropanoic acid-diaminopropane] returned a CC50 at 4 days above 512 µg/mL. Further, the IC50 at 4 days in “in vitro” (RPTEC, 4 days incubation, Alomar Blue, read-out: Cytotoxicity (Kidney Epithelial IC50)) is above 512 µg/mL. Further, in the series with erythrocytes (Erythrocyte, read-out: Erythrocyte Lysis (Hemolysis IC50)), the IC50 is above 3200 µg/mL. For the same compound, the Escherichia coli (MIC) with Escherichia coli is above 128 µg/mL. This compound also registered a Haemophilus influenzae (MIC) with Haemophilus influenzae above 128 µg/mL. In addition, in the series on Pseudomonas aeruginosa, the Pseudomonas aeruginosa (MIC) was above 128 µg/mL. In [3], this compound yielded a Staphylococcus aureus subsp. aureus (MIC) above 128 µg/mL. In the series on Staphylococcus epidermis, this compound had a Staphylococcus epidermis (MIC) above 128 µg/mL. In [1], “Carboxy terminated Poly(4,4-trimethylene dipiperidinebispropanoic acid-diaminopropane)” came in with a Cytotoxicity (Kidney Epithelial IC50) of 43 µg/mL.

“Methyl ester terminated Poly(4,4-trimethylene dipiperidinebispropanoic acid-diaminopropane)” gave a Cytotoxicity (Kidney Epithelial IC50) in series [1] of 1.5 µg/mL. For “Poly (4,4′-trimethylene dipiperidine bispropanoic acid-4,4′-trimethylene dipiperidine)”, the “Cytotoxicity (Human Dermal Fibroblast IC50)” value in series [4] was 3.

As for “Poly (4,4′-trimethylene dipiperidine bispropanoic acid--N,N′-dimethyl-1,3-diaminopropane)”, in series [4], the “Cytotoxicity (Human Dermal Fibroblast IC50)” value was 5. Still for that read-out and setting: the value for “Poly(4,4-trimethylene dipiperidine bispropanoic acid-diaminoethane)” was 178. In the case of “Poly(4,4-trimethylene dipiperidinebispropanoic acid 4,4′-dipiperidine)”, in series [4], the “Cytotoxicity (Human Dermal Fibroblast IC50)” value turned out to be 2.0. Same read-out and setting: the value for “Poly(4,4-trimethylene dipiperidinebispropanoic acid-N(2-aminoethyl)-diaminoethane)” was 1.7; that for “Poly(4,4-trimethylene dipiperidinebispropanoic acid-diaminopropane)” was 141.3; that for “Poly(4,4′-dipiperidinebispropanoic acid-3,3′-diamino-N-methyl-dipropylamine) [Poly(4,4′-dipiperidinebispropanoic acid-3,3′-diamino-N-methy] [listing 1 of 2 here]” was 3. For the compound “Poly(4,4′-dipiperidinebispropanoic acid-3,3′-diamino-N-methyl-dipropylamine) [Poly(4,4′-dipiperidinebispropanoic acid-3,3′-diamino-N-methy] [listing 2 of 2 here]”, the “Cytotoxicity (Human Dermal Fibroblast IC50)” value in series [4] worked out at 2. Same read-out and setting: the value for “Poly(4,4′-dipiperidinebispropanoic acid-3,3′-diamino-dipropylamine) [Poly(4,4′-dipiperidinebispropanoic acid-3,3′-diamino-dipropy]” was 2; that for “Poly(4,4′-dipiperidinebispropionic acid-1,3-diaminopropane)” was 7.

Regarding “Poly(4,4′-dipiperidinebispropionic acid-1,4-diaminobutane)”, the “Cytotoxicity (Human Dermal Fibroblast IC50)” value in series [4] was 5. Regarding “Poly(4,4′-trimethylene dipiperidinebispropanoic acid-1,4-benzyldiamine)”, the “Cytotoxicity (Human Dermal Fibroblast IC50)” value in [4] amounted to 4.703.

The compound “Poly(4,4′-trimethylenedipiperidine-1,3-diamninopropane-N,N′-di-3-propionic acid)” showed a Cytotoxicity (Kidney Epithelial IC50) in series [1] of 2 µg/mL. For the same compound, in series [4], the “Cytotoxicity (Human Dermal Fibroblast IC50)” value stood at 2.

Consider “Poly(4,4′-trimethylenedipiperidinebispropionic acid-2-dydroxy 1,3-diaminopropane)”, for which the “Cytotoxicity (Human Dermal Fibroblast IC50)” value in [4] is on record as 50. Take “Poly(4,4′-trimethylenedipiperidinebispropionic acid-bis(4-aminobutyl)ether)”: in [4], the “Cytotoxicity (Human Dermal Fibroblast IC50)” value turned out to be 3. Consider “Poly(piperazinebispropanoic acid-1,4-diaminobutane)”, for which, in [4], the “Cytotoxicity (Human Dermal Fibroblast IC50)” value was 1905. Regarding “Poly(piperazinebispropanoic acid-2,2-diaminodiethylamine)”, in series [4], the “Cytotoxicity (Human Dermal Fibroblast IC50)” value is 1111.6. In series [1], “Poly(piperazinebispropanoic acid-3,3′ diamino-N-methyl-dipropylamine)” registered a Cytotoxicity (Kidney Epithelial IC50) of 5.3 µg/mL. For the compound “Poly(piperazinebispropanoic acid-N(3-aminopropyl)1,3-propanediamine)”, the “Cytotoxicity (Human Dermal Fibroblast IC50)” value in series [4] turned out to be 15.3.

Take “Poly(piperazinebispropanoic acid-N-methyl-2,2-diaminodiethylamine)”: in series [4], the “Cytotoxicity (Human Dermal Fibroblast IC50)” value came to 3068.6.

Source of the values: patent publication US9326994B2, “Amine functional polyamides” (GENZYME CORPORATION, priority 2013, dated 2016).
